Patent EP1276895B1, “METHOD FOR THE IDENTIFICATION OF ACTIVE SITE PROTEASE INACTIVATORS” (THE UNIVERSITY OF GEORGIA RESEARCH FOUNDATION, INC., priority 2000, dated 2001)
Residues, ends and D or L forms follow the SMILES beside them. *: point of attachment. AFC = O=c1cc(C(F)(F)F)c2ccc(N*)cc2o1; Cbz = O=C(OCc1ccccc1)*; CH2F = FC*

What was measured:
Trypsin (serine) = test: Differential cleavage (selectivity) test, Trypsin; assay type: biochemical, human; conditions: 0.15 M PBS pH 8.0, 100 mM CaCl2, substrate Z-R-AFC
Protocol: (§1) In order to perform the assay, the vehicle (for Step VI) or inhibitor (for Step IX) were incubated with the appropriate substrate in the correct assay buffer and allowed to equilibrate. Subsequently, the protease was added, and the assay was allowed to incubate for an appropriate time. The concentrations used in this experiment were as follows: Vehicle was set up at 4 X 10^-5 M in final assay buffer; Inhibitor was set up at 3 X 10^-10 M in the final assay buffer. Accordingly, the dosages employed should be the minimal amount of vehicle or inhibitor necessary to induce inhibition. […] Substrates were set up based upon the preferred substrate for cleavage of the particular enzyme.
(§2) Positive controls were set up similarly as described for test controls, except that solvent was added in substitution for the inhibitor or vehicle (in a volume equal to the volume of inhibitor or vehicle addition). All of the inhibitors and vehicles could be dissolved in dimethylsulfoxide (DMSO), and therefore, this was the solvent of choice. Negative controls were set up by adding the inhibitor or vehicle and the preferred substrates in a tube without the protease. All potential non-proteolytic liberation of AFC was therefore controlled for in this tube (a feature which also insured stability of the AFC substrates, since these substrates will freely liberate AFC when unstable).
(§3) All controls were set up in triplicate, and experiments were repeated a minimum of five times.
(§4) Percent inhibition was calculated as: % Inhibition = ((AFC positive for ʺSIʺ-AFC negative for ʺSIʺ)-(AFC test-AFC negative for ʺSIʺ))/(AFC positive for ʺSIʺ-AFC negative for ʺSIʺ) × 100 [formula] In this preliminary test, we employed the following human-derived enzymes (with indicated mechanistic class): Cathepsin B (cysteine), Cathepsin L (cysteine), Cathepsin H (cysteine), Cathepsin D (aspartic) Trypsin (serine), the purified Taenia solium cysteine protease, and the Taenia solium crude mix. Cathepsin B was prepared in an assay buffer of 10 mM L-cysteine in 0.4 M Citrate buffer, pH 6.1, using Z-ARR-AFC as the cleavage substrate. Cathepsin L was prepared in an assay buffer of 10 mM L-cysteine in 0.4 M Citrate buffer, pH 5.5, using Z-FR-AFC as the cleavage substrate. Cathepsin H was prepared in an assay buffer of 10 mM L-cysteine in 0.15 M PBS buffer, pH 6.8, using L-R-AFC as the cleavage substrate. Cathepsin D was prepared in an assay buffer of 0.15 M PBS, pH 7.1, using Z-RGFFP-AFC as the cleavage substrate. Trypsin was prepared in an assay buffer of 0.15 M PBS, pH 8.0, supplemented with 100 mM CaCl2 and with Z-R-AFC as the cleavage substrate. Enzyme was incubated so that it was at least 50 times less than the concentration of substrate in order to insure saturating conditions.

Cathepsin H (cysteine) = molecular target: T1, Cathepsin H (cysteine) (Homo sapiens, UniProt P09668); test: Differential cleavage (selectivity) test, Cathepsin H; assay type: biochemical; conditions: 0.15 M PBS pH 6.8, 10 mM L-cysteine, substrate L-R-AFC; for inhibition at 0.0003 µM: inhibitor 3 X 10^-10 M
T1 sequence (P09668 98-335): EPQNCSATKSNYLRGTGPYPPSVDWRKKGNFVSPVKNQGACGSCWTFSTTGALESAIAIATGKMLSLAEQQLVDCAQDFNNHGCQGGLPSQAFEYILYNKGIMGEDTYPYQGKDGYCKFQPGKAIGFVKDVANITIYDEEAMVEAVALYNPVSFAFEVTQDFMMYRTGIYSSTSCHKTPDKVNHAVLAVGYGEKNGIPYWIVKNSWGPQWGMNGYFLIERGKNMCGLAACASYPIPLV
Protocol: as §1, §2, §3, §4

Cathepsin L (cysteine) = Cathepsin L (cysteine) (Homo sapiens, UniProt P07711); test: Differential cleavage (selectivity) test, Cathepsin L; assay type: biochemical; conditions: 0.4 M Citrate pH 5.5, 10 mM L-cysteine, substrate Z-FR-AFC
Chain of Cathepsin L (cysteine) (P07711 114-333): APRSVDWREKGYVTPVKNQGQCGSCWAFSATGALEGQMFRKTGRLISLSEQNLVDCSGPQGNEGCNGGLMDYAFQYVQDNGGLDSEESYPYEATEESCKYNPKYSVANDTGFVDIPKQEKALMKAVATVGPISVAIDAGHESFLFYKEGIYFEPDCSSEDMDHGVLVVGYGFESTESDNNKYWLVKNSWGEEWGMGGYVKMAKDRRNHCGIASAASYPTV
Protocol: as §1, §2, §3, §4

[1] = inhibitor 3 X 10^-10 M, 0.0003 µM

Compound	% Inhibition (Trypsin (serine); vehicle 4 X 10^-5 M, 40 µM) [%]	inhibition at 40 µM (Cathepsin H (cysteine); vehicle 4 X 10^-5 M) [%]	inhibition at 40 µM (Cathepsin L (cysteine); vehicle 4 X 10^-5 M) [%]	% Inhibition (Trypsin (serine); [1]) [%]	inhibition at 0.0003 µM (Cathepsin H (cysteine)) [%]	inhibition at 0.0003 µM (Cathepsin L (cysteine); inhibitor 3 X 10^-10 M) [%]	% Inhibition (Cathepsin L (cysteine); [1])	% Inhibition (Cathepsin H (cysteine); vehicle 4 X 10^-5 M, 40 µM) [%]	% Inhibition (Cathepsin L (cysteine); vehicle 4 X 10^-5 M) [%]	% Inhibition (Cathepsin L (cysteine); vehicle 4 X 10^-5 M, 40 µM)
CC(C)C[C@H](NC(=O)OCc1ccccc1)C(=O)N[C@@H](CC(C)C)C(=O)N[C@@H](CC(C)C)C(=O)Nc1ccc2c(C(F)(F)F)cc(=O)oc2c1 [Z-LLL-AFC, Z-Leu-Leu-Leu-AFC] (Cbz-Leu-Leu-Leu-{AFC})	0	0	0							
CC(C)C[C@H](NC(=O)[C@H](CC(C)C)NC(=O)[C@H](CC(C)C)NC(=O)OCc1ccccc1)C(=O)CF [Z-LLL-FMK, Z-Leu-Leu-Leu-fluoromethylketone] (Cbz-Leu-Leu-Leu-CH2F)				0	0	50	almost half of the inhibition of the Taenia solium cysteine protease			
CC(C)C[C@H](NC(=O)OCc1ccccc1)C(=O)N[C@@H](CC(C)C)C(=O)N[C@@H](Cc1ccc(O)cc1)C(=O)Nc1ccc2c(C(F)(F)F)cc(=O)oc2c1 [Z-LLY-AFC, Z-Leu-Leu-Tyr-AFC] (Cbz-Leu-Leu-Tyr-{AFC})	0	0	0							
CC(C)C[C@H](NC(=O)OCc1ccccc1)C(=O)N[C@@H](CC(C)C)C(=O)N[C@@H](Cc1ccc(O)cc1)C(=O)CF [Z-LLY-FMK, Z-Leu-Leu-Tyr-FMK] (Cbz-Leu-Leu-Tyr-CH2F)				0	0	0	did not inhibit cathepsin L at all			
Mu-Leu-Tyr-AFC [Mu-LY-AFC]	0							0	25	subtle inhibition
